In PubChem BioAssay AID1996:
Converted amounts (≈) assume the structure as drawn.

Details: buffer; pH 7.4; 200.0 µM
For CSc1nc2c(c(=O)[nH]c(=O)n2C)n1Cc1ccccc1, the solubility kinetic was greater than 45.4 µg/mL. With O=C1OCc2nc3cc4c(cc3c(-c3ccc(F)cc3)c21)OCO4 the solubility kinetic was 1.2 µg/mL (≈ 3.71 µM). For Cc1ccc(NS(=O)(=O)c2cccc3nsnc23)cc1[N+](=O)[O-], the solubility kinetic was 50.2 µg/mL (≈ 143 µM). CC1CCN(CC(O)COc2ccc(C(=O)c3ccccc3)cc2)CC1 (stereo unspecified) gave a solubility kinetic greater than 53 µg/mL. Molecule CCOC(=O)N1CCN(C(=O)c2ccc(OC)cc2)CC1 has a solubility kinetic greater than 43.9 µg/mL. In the case of Cn1cc(C(=O)N2CCOCC2)c2ccccc21, the solubility kinetic was greater than 36.6 µg/mL. O=S(=O)(c1ccc(S(=O)(=O)N2CCCC2)cc1)N1CCCCC1 showed a solubility kinetic of less than 0.4 µg/mL. With COc1ccc(OC)c(/C=C2\SC(N3CCCC(C)C3)=NC2=O)c1 (stereo unspecified) the solubility kinetic was 22.1 µg/mL (≈ 63.8 µM). With O=C(COc1ccc(Cl)c2cccnc12)N1CCOCC1 the solubility kinetic was 42.5 µg/mL (≈ 139 µM). With CCOC(=O)/C(C(=Nc1ccccc1)Nc1ccccc1)=C(\C)O the solubility kinetic was 29.5 µg/mL (≈ 90.9 µM). Molecule COc1ccccc1CCC(=O)Nc1nccs1 has a solubility kinetic of 8.6 µg/mL (≈ 32.8 µM). With Cc1[nH]c2ccccc2c1C(c1ccccn1)N1CCCC1 (stereo unspecified) the solubility kinetic was 39.9 µg/mL (≈ 137 µM). In the case of CC(=O)Nc1cccc(OCC(=O)NCCC2=CCCCC2)c1, the solubility kinetic was greater than 47.5 µg/mL. With COc1cc(C)ccc1S(=O)(=O)NC1CC(C)(C)NC(C)(C)C1 the solubility kinetic was 35 µg/mL (≈ 103 µM). Clc1cccc(Cl)c1CN1CCN(c2ncccn2)CC1 showed a solubility kinetic of 17.2 µg/mL (≈ 53.2 µM). Work on Cc1ccc(SCC(=O)NC2CC3CCC(C2)N3C)cc1 (stereo unspecified) yielded a solubility kinetic of 45.1 µg/mL (≈ 148 µM). COC(=O)c1ccc2nc(-c3ccc4c(c3)OCO4)cn2c1 gave a solubility kinetic of 1.2 µg/mL (≈ 4.05 µM). With Cc1c(Cl)cccc1NC(=S)NCCc1ccccn1 the solubility kinetic was greater than 45.9 µg/mL. Work on C=CCn1c(=O)c2ccccc2n2c(SCC(=O)NC(C)C)nnc12 yielded a solubility kinetic greater than 53.6 µg/mL. For O=C(OCc1cncs1)c1cccs1, the solubility kinetic was greater than 33.8 µg/mL. Molecule CC1CCCCN1C(=S)NC(=O)c1ccco1 (stereo unspecified) has a solubility kinetic greater than 37.8 µg/mL. In the case of COc1cccc(N2CCN(Cc3ccco3)CC2)c1, the solubility kinetic was 30.8 µg/mL (≈ 113 µM). For CCOCCCNC(=O)c1c[nH]c2c(CC)cccc2c1=O, the solubility kinetic was greater than 45.4 µg/mL. Work on Cc1cc2nsnc2c(S(=O)(=O)N2CCN(C)CC2)c1C yielded a solubility kinetic of 47.9 µg/mL (≈ 147 µM). In the case of CCOP(=O)(OCC)/C(C#N)=C(\O)c1ccc(OC)cc1, the solubility kinetic was greater than 46.7 µg/mL. In the case of O=C(/C=C/c1cccs1)NCc1ccc2c(c1)OCO2, the solubility kinetic was 6.3 µg/mL (≈ 21.9 µM). For O=C1c2ccccc2C(=O)N1CCc1ccccc1, the solubility kinetic was 7.8 µg/mL (≈ 31 µM). With CSc1ncccc1C(=O)OCC(=O)NC(C)CCc1ccccc1 (stereo unspecified) the solubility kinetic was 29.1 µg/mL (≈ 81.2 µM). Molecule Cc1ccsc1C(=O)OCC(=O)N1C(C)CCCC1C (stereo unspecified) has a solubility kinetic greater than 44.3 µg/mL. With COc1ccc(CN2CCOCCOCCOCCOCC2)cc1 the solubility kinetic was greater than 50.9 µg/mL. With COc1ccc(S(=O)(=O)N2CCN(C(=O)N(C)C)C2C)cc1 (stereo unspecified) the solubility kinetic was greater than 49.1 µg/mL. In the case of Cc1ccc(CNC(=O)c2cc3ccccc3oc2=O)cc1, the solubility kinetic was 1.2 µg/mL (≈ 4.09 µM). In the case of CC(=O)Oc1ccc2nc(-c3ccc(Br)o3)oc(=O)c2c1, the solubility kinetic was 4.2 µg/mL (≈ 12 µM). In the case of O=C1C(=O)N(CC(=O)N2CCCC2)c2ccccc21, the solubility kinetic was 38.2 µg/mL (≈ 148 µM). CC(=O)c1ccc(N2CCCCC2)c(F)c1 gave a solubility kinetic of 12.1 µg/mL (≈ 54.7 µM). O=C(Nc1ccc2[nH]c(=O)[nH]c2c1)Nc1ccc(F)cc1F showed a solubility kinetic of 3.7 µg/mL (≈ 12.2 µM). In the case of O=C(Oc1cccc(C(=S)N2CCCCC2)c1)c1ccccc1, the solubility kinetic was 6 µg/mL (≈ 18.4 µM). CC(C)CC(N(C)C)C1(c2ccc(Cl)cc2)CCC1.Cl (stereo unspecified) gave a solubility kinetic of less than 0.7 µg/mL. With CN(CCC#N)C(=O)COc1ccc(Br)cc1Cl the solubility kinetic was greater than 49.7 µg/mL. CCc1ccc(C(=O)Nc2ccc3nc(C)ccc3c2)cc1 showed a solubility kinetic of less than 0.3 µg/mL. With O=C(O)C1CCC1C(=O)Nc1nc(-c2ccc(Cl)s2)cs1 (stereo unspecified) the solubility kinetic was greater than 51.4 µg/mL. With OC1=C(O)c2nc3cc(C(F)(F)F)ccc3nc21 the solubility kinetic was greater than 38.1 µg/mL. Work on COc1ccccc1/C=C/c1ccc2cccc(O)c2n1 yielded a solubility kinetic of 11.2 µg/mL (≈ 40.4 µM). Molecule CCc1ccc2nc(Nc3ncc(C(C)=O)c(C)n3)nc(C)c2c1 has a solubility kinetic of 6.9 µg/mL (≈ 21.5 µM). In the case of Cc1cccc(OCCn2c(=O)oc3ccc(C)cc32)c1, the solubility kinetic was 3.8 µg/mL (≈ 13.4 µM). Molecule COCCN1C2=C(COC(C)(C)C2)C(=S)NC1c1ccccc1 (stereo unspecified) has a solubility kinetic greater than 49.9 µg/mL. With CC(=O)Nc1ccc(NC(=O)CC(C)n2ccnc2)cc1 (stereo unspecified) the solubility kinetic was 40.8 µg/mL (≈ 142 µM). In the case of COc1cc(Cl)c(C)cc1NC(=O)CN1C(=O)C2CC=CCC2C1=O (stereo unspecified), the solubility kinetic was greater than 54.4 µg/mL. Nc1cc(Cl)ccc1C(=O)OCC(=O)NC1CCCCC1 gave a solubility kinetic of 0.5 µg/mL (≈ 1.61 µM). CCOC(=O)c1nccnc1C(=O)Nc1cccc(C(F)(F)F)c1 gave a solubility kinetic of 47.5 µg/mL (≈ 140 µM). Work on COc1ccc(CC(=O)N2CCN(c3ccccc3)CC2)cc1 yielded a solubility kinetic of 31.7 µg/mL (≈ 102 µM). Work on NC(=O)C1CCN(C(=O)c2cc(Cl)c3c(c2)OCCO3)CC1 yielded a solubility kinetic greater than 48.7 µg/mL. CCOc1ccccc1NC(=O)c1ccccc1-c1ccccc1 showed a solubility kinetic of 8.5 µg/mL (≈ 26.8 µM). With O=[N+]([O-])c1cccc(-c2nc3ccc([N+](=O)[O-])cc3[nH]2)c1 the solubility kinetic was 1.2 µg/mL (≈ 4.22 µM). With CC1SCC(NC(=O)c2ccccc2Cl)CS1 (stereo unspecified) the solubility kinetic was greater than 43.2 µg/mL. CCOC(Cn1cc(C)c(=O)[nH]c1=O)OCC showed a solubility kinetic greater than 36.3 µg/mL. For O=C(NCCN1CCOCC1)c1ccccc1Cl, the solubility kinetic was greater than 40.3 µg/mL. Cc1c(C(=O)N2CCc3ccccc3C2)oc2ccccc12 gave a solubility kinetic of 7.5 µg/mL (≈ 25.7 µM). For CC(=O)Nc1sc(C)c(C)c1C(=O)OCC(=O)Nc1ccc(S(N)(=O)=O)cc1, the solubility kinetic was 8.4 µg/mL (≈ 19.7 µM). For Cc1ccc(NC(=O)c2ccc3c(c2)OCCO3)cc1C, the solubility kinetic was 25.8 µg/mL (≈ 91.1 µM). In the case of COCCNC(=O)/C(C#N)=C/c1cc(Br)c(O)c(OC)c1, the solubility kinetic was 45 µg/mL (≈ 127 µM). Molecule Cc1cc(=O)[nH]c(SCC(=O)NCCC2=CCCCC2)n1 has a solubility kinetic of 38.8 µg/mL (≈ 126 µM). In the case of Cc1nc(SCCO)c([N+](=O)[O-])[nH]1, the solubility kinetic was greater than 30.5 µg/mL. CC(OC(=O)c1cccc([N+](=O)[O-])c1)C(=O)NCc1ccc2c(c1)OCO2 (stereo unspecified) showed a solubility kinetic of 22.4 µg/mL (≈ 60.2 µM). Work on Cc1ccnc(Cc2ccccc2)n1 yielded a solubility kinetic of 18.5 µg/mL (≈ 100 µM). CN1C(=O)C(=O)/C(=C(/O)c2ccccc2)C1c1ccccc1 (stereo unspecified) showed a solubility kinetic greater than 44 µg/mL. Molecule O=C(Nc1ccccn1)c1cc(-c2cccc(Cl)c2)nc2ccccc12 has a solubility kinetic of less than 0.3 µg/mL. For O=C(COC(=O)c1ccc(S(=O)(=O)N2CCCC2)cc1)NCCc1ccc(F)cc1, the solubility kinetic was 6.2 µg/mL (≈ 14.3 µM). NS(=O)(=O)c1ccc(NC(=O)c2ccc(OCC3CCCO3)cc2)cc1 (stereo unspecified) gave a solubility kinetic of 13 µg/mL (≈ 34.5 µM). Work on COC(=O)c1sc(-c2ccccc2)cc1NC(C)=O yielded a solubility kinetic of 1.7 µg/mL (≈ 6.17 µM). NS(=O)(=O)c1cccc(NC(=O)c2cccc(N3C(=O)c4ccccc4C3=O)c2)c1 gave a solubility kinetic of 12.2 µg/mL (≈ 28.9 µM). For COC(=O)C(O)(c1ccc(NC(=O)c2ccccc2)cc1)C(F)(F)F (stereo unspecified), the solubility kinetic was 42.9 µg/mL (≈ 121 µM). COc1ccc(-n2nc(C)c3sc(C)nc3c2=O)cc1 gave a solubility kinetic greater than 43.1 µg/mL. For COc1ccc(NC(=O)Nc2cnccn2)c(OC)c1, the solubility kinetic was 3.4 µg/mL (≈ 12.4 µM). c1ccc(CNCCc2c[nH]c3ccccc23)cc1 showed a solubility kinetic of 37.2 µg/mL (≈ 149 µM). For Cc1cc(NC(=O)c2ccccc2)no1, the solubility kinetic was 28.8 µg/mL (≈ 142 µM). Molecule S=c1[nH]nc(-c2ccco2)n1-c1ccc(Cl)cc1 has a solubility kinetic greater than 41.7 µg/mL. Work on COc1cc(/C(C)=N/NC(=O)CSc2nnc(C)s2)ccc1O yielded a solubility kinetic greater than 52.9 µg/mL. COc1ccc(NC(=S)NC(=O)Cc2ccccc2)c(OC)c1 gave a solubility kinetic of 1.7 µg/mL (≈ 5.15 µM). COc1ccc(S(=O)(=O)N2CCCCC2)cc1NC(=O)CCNC(=O)c1ccc(Cl)cc1 gave a solubility kinetic of 4.3 µg/mL (≈ 8.96 µM). O=c1[nH]c2ccccc2nc1Cc1ccc([N+](=O)[O-])cc1 showed a solubility kinetic of 3.6 µg/mL (≈ 12.8 µM). With OCCCNc1nc(-c2ccccc2)nc2c1oc1ccccc12 the solubility kinetic was 1.3 µg/mL (≈ 4.07 µM). Work on O=C(COC(=O)c1ccccc1F)NC1CCCC1 yielded a solubility kinetic greater than 39.8 µg/mL. In the case of Cc1ccc2nc(COc3ccc(Cl)cc3)cc(=O)n2c1, the solubility kinetic was 0.5 µg/mL (≈ 1.66 µM). C=CCOC(=O)C1=C(C)NC(C)=C(C(=O)OCC=C)C1c1ccco1 gave a solubility kinetic of 4.5 µg/mL (≈ 13.1 µM). With O=[N+]([O-])c1ccc(SCCc2cc[nH+]cc2)cc1.[Cl-] the solubility kinetic was 36.5 µg/mL.
